Experimental data reported in US20240294498A1, “FACTOR XIIA INHIBITORS” (Lunac Therapeutics Ltd, priority 2021, published 2024).

How the values were obtained:
Type in all cases: biochemical
FXIIa = target: T1, FXIIa (Homo sapiens, UniProt P00748); test: Determination of Factor XIIa inhibition (chromogenic substrate S-2302); conditions: human FXIIa alpha, Ki category
T1 construct: FXIIa alpha
T1 sequence (P00748 373-615 limits assumed): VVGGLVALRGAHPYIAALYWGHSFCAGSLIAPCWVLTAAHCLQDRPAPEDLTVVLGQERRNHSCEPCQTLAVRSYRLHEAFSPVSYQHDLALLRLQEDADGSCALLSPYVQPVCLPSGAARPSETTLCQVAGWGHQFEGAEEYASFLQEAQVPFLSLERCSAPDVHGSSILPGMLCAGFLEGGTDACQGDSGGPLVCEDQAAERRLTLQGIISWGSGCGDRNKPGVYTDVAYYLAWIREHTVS
T1 sequence (P00748 20-372 partner limits assumed): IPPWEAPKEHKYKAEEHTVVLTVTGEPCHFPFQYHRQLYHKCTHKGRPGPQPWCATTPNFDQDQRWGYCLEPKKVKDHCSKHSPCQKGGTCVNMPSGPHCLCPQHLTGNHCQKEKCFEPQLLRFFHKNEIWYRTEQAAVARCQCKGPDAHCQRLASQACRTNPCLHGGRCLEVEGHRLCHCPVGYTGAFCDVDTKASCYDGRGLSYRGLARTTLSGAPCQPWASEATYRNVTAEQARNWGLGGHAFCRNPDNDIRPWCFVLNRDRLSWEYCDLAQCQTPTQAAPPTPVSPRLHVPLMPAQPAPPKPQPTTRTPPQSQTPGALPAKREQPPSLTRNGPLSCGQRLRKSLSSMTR
In short: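 Compound preincubated with 10 nM FXIIa for 10 min at 37° C in 50 mM Tris, 137 mM NaCl, pH 7.4, 5% DMSO, top concentration 500 μM; S-2302 added at Km. pNA release followed at 405 nm for 3 h; IC50 from initial rates, converted to Ki via Ki = IC50/(1+[S]/Km).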

FXa = FXa (Homo sapiens, UniProt P00742); test: Determination of selectivity: FXa inhibition (chromogenic substrate S2765); conditions: fold selectivity for FXIIa over FXa (human); category
In short: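 FXa (5 nM) preincubated with increasing compound (top 500 μM) for 10 mins at 37° C in 50 mM Tris, 137 mM NaCl pH 7.4, 5% DMSO, then S2765 added at its KM. Absorbance at 405 nm followed kinetically for 3 hours; IC50 from initial rates, converted to Ki by Cheng-Prusoff.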

thrombin = target: T2, thrombin (Homo sapiens, UniProt P00734); test: Determination of selectivity: thrombin inhibition (chromogenic substrate GPR); conditions: fold selectivity for FXIIa over thrombin (human); category
T2 construct: FXa (5 nM) and thrombin (5 nM)
In short: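 Thrombin (5 nM) preincubated with increasing compound concentrations (top 500 μM, 5% DMSO) 10 min at 37 °C in 50 mM Tris, 137 mM NaCl pH 7.4, then GPR chromogenic substrate at its KM. pNA release read kinetically at 405 nm for 3 h at 37 °C. IC50 from initial rates, converted to Ki via Cheng–Prusoff.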

FXa, sequence (P00742 235-488 limits assumed): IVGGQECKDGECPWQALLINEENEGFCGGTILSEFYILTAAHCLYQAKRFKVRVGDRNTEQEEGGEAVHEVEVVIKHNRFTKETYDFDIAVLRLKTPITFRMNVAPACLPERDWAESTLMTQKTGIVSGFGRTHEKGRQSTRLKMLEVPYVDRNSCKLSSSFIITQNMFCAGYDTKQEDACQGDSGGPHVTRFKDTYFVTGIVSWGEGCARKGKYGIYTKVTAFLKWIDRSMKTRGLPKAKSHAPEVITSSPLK
FXa, sequence (P00742 41-179 partner limits assumed): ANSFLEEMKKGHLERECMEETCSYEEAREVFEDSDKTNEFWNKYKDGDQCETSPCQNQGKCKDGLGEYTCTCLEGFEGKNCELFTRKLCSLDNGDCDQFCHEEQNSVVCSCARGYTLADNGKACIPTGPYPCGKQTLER

Compound | Ki (FXIIa) | FXa (human)/FXIIa alpha (human) (FXa) | Thrombin (human)/FXIIa alpha (human) (thrombin)
CN(CCN1CCCC1)C(=O)[C@H]1CCCN[C@H]1C(=O)N1C[C@@H](C(F)(F)F)C[C@H]1C(=O)NCc1ccc2c(cnn2C)c1 [Example M06085, (2R,3S)-N-methyl-2-((2S,4S)-2-(((1-methyl-1H-indazol-5-yl)methyl)carbamoyl)-4-(trifluoromethyl)pyrrolidine-1-carbonyl)-N-(2-(pyrrolidin-1-yl)ethyl)piperidine-3-carboxamide] | < 0.2 µM | ∘∘∘ | +++ (fold selectivity values greater than 100)
Cc1nnc2cc(CNC(=O)[C@@H]3C[C@@H](Cc4ccc(C(F)(F)F)cc4)CN3C(=O)[C@@H]3NCCC[C@@H]3C(=O)N3CCCC3)ccn12 [Example M05882, (2S,4R)-N-((3-methyl-[1,2,4]triazolo[4,3-a]pyridin-7-yl)methyl)-1-((2R,3S)-3-(pyrrolidine-1-carbonyl)piperidine-2-carbonyl)-4-(4-(trifluoromethyl)benzyl)pyrrolidine-2-carboxamide] | 0.8 to 5 µM | ∘∘∘ | +++ (fold selectivity values greater than 100)
CCN1CCC[C@H](C(=O)N2CCCC2)[C@@H]1C(=O)N1C[C@H](Cc2ccc(C)cc2)C[C@H]1C(=O)NCc1ccc2c(cnn2C)c1 [Example M05772, (2S,4R)-1-((2R,3S)-1-ethyl-3-(pyrrolidine-1-carbonyl)piperidine-2-carbonyl)-N-((1-methyl-1H-indazol-5-yl)methyl)-4-(4-methylbenzyl)pyrrolidine-2-carboxamide] | 0.2 to 0.8 µM | ∘∘∘ | +++ (fold selectivity values greater than 100)
Cc1ccc(C[C@@H]2C[C@@H](C(=O)NCc3ccc4c(cnn4C(F)F)c3)N(C(=O)[C@@H]3NCCC[C@@H]3C(=O)N3CCCC3)C2)cc1 [Example M05778, (2S,4R)-N-((1-(difluoromethyl)-1H-indazol-5-yl)methyl)-4-(4-methylbenzyl)-1-((2R,3S)-3-(pyrrolidine-1-carbonyl)piperidine-2-carbonyl)pyrrolidine-2-carboxamide] | 0.2 to 0.8 µM | ∘∘∘ | +++ (fold selectivity values greater than 100)
Cc1ccc(C[C@@H]2C[C@@H](C(=O)NCc3ccn4c(C)nnc4c3)N(C(=O)[C@@H]3NCCC[C@@H]3C(=O)N3CCCC3)C2)cc1 [Example M05855, (2S,4R)-N-((3-methyl-[1,2,4]triazolo[4,3-a]pyridin-7-yl)methyl)-4-(4-methylbenzyl)-1-((2R,3S)-3-(pyrrolidine-1-carbonyl)piperidine-2-carbonyl)pyrrolidine-2-carboxamide] | 0.2 to 0.8 µM | ∘∘∘ | +++ (fold selectivity values greater than 100)
Cc1ccc(C[C@@H]2C[C@@H](C(=O)NCCCn3ccnc3)N(C(=O)[C@@H]3NCCC[C@@H]3C(=O)N3CCC[C@@H]3C(F)(F)F)C2)cc1 [Example M06089] | 0.2 to 0.8 µM | ∘∘∘ | +++ (fold selectivity values greater than 100)
Cc1ccc(C[C@@H]2C[C@@H](C(=O)NCc3ccc4c(cnn4C)c3)N(C(=O)[C@@H]3NCCC[C@@H]3C(=O)N3CC(F)C3)C2)cc1 [Example M05878, (2S,4R)-1-((2R,3S)-3-(3-fluoroazetidine-1-carbonyl)piperidine-2-carbonyl)-N-((1-methyl-1H-indazol-5-yl)methyl)-4-(4-methylbenzyl)pyrrolidine-2-carboxamide] | < 0.2 µM | ∘∘∘ | +++ (fold selectivity values greater than 100)
Cc1ccc(C[C@@H]2C[C@@H](C(=O)NCc3ccc4c(c3)nnn4C)N(C(=O)[C@@H]3NCCC[C@@H]3C(=O)N3CCC[C@@H]3C(F)(F)F)C2)s1 [Example M06079, (2S,4S)-N-+(1-methylbenzotriazol-5-yl)methyl+-4-+(5-methyl-2-thienyl)methyl+-1-+(2R,3S)-3-+(2R)-2-(trifluoromethyl)pyrrolidine-1-carbonyl+piperidine-2-carbonyl+pyrrolidine-2-carboxamide] | 0.2 to 0.8 µM | ∘∘∘ | +++ (fold selectivity values greater than 100)
Cn1ncc2cc(CNC(=O)[C@@H]3C[C@@H](Cc4ccc(C(F)(F)F)cc4)CN3C(=O)[C@@H]3NCCC[C@@H]3C(=O)N3CCCC3)ccc21 [Example M05788, (2S,4R)-N-((1-methyl-1H-indazol-5-yl)methyl)-1-((2R,3S)-3-(pyrrolidine-1-carbonyl)piperidine-2-carbonyl)-4-(4-(trifluoromethyl)benzyl)pyrrolidine-2-carboxamide] | < 0.2 µM | ∘∘∘ | +++ (fold selectivity values greater than 100)
Cn1ncc2cc(CNC(=O)[C@@H]3C[C@@H](Cc4cccc(C(F)(F)F)c4)CN3C(=O)[C@@H]3NCCC[C@@H]3C(=O)N3CCCC3)ccc21 [Example M05836, (2S,4R)-N-((1-methyl-1H-indazol-5-yl)methyl)-1-((2R,3S)-3-(pyrrolidine-1-carbonyl)piperidine-2-carbonyl)-4-(3-(trifluoromethyl)benzyl)pyrrolidine-2-carboxamide] | 0.8 to 5 µM | ∘∘∘ | +++ (fold selectivity values greater than 100)
Cc1ccc(C[C@@H]2C[C@@H](C(=O)NCc3ccc4c(cnn4C)c3)N(C(=O)[C@@H]3NCCC[C@@H]3C(=O)N3CCC(F)(F)C3)C2)cc1 [Example M05787, (2S,4R)-1-((2R,3S)-3-(3,3-difluoropyrrolidine-1-carbonyl)piperidine-2-carbonyl)-N-((1-methyl-1H-indazol-5-yl)methyl)-4-(4-methylbenzyl)pyrrolidine-2-carboxamide] | 0.2 to 0.8 µM | ∘∘∘ | +++ (fold selectivity values greater than 100)
Cc1ccc(C[C@@H]2C[C@@H](C(=O)NCc3ccc4c(cnn4C)c3)N(C(=O)[C@@H]3NCCC[C@@H]3C(=O)N3CC[C@H](N(C)C)C3)C2)cc1 [Example M06013, (2S,4R)-1-((2R,3S)-3-((S)-3-(dimethylamino)pyrrolidine-1-carbonyl)piperidine-2-carbonyl)-N-((1-methyl-1H-indazol-5-yl)methyl)-4-(4-methylbenzyl)pyrrolidine-2-carboxamide] | < 0.2 µM | ∘∘∘ | +++ (fold selectivity values greater than 100)
